Measurements reported in patent US7759366B2 (Sanofi-Aventis, priority 2006, dated 2010).
Like-named read-outs stand apart in the source and are kept apart here.

Assays:
hCB1R [1] = biological target: T1, hCB1R (Homo sapiens, UniProt P21554); experiment: In vitro functional assay (FLIPR, intracellular Ca2+) with recombinant HEK293 cells, CB1; type: cell-based; set-up: expressed in transfected cells; host or cells: HEK293; conditions: recombinant HEK293 cells expressing CB1 and Galpha16; 20 min preincubation, then reference agonist; Ca2+ change; read-out: hCB1R: FLIPR; IC50
T1 sequence (P21554 whole entry): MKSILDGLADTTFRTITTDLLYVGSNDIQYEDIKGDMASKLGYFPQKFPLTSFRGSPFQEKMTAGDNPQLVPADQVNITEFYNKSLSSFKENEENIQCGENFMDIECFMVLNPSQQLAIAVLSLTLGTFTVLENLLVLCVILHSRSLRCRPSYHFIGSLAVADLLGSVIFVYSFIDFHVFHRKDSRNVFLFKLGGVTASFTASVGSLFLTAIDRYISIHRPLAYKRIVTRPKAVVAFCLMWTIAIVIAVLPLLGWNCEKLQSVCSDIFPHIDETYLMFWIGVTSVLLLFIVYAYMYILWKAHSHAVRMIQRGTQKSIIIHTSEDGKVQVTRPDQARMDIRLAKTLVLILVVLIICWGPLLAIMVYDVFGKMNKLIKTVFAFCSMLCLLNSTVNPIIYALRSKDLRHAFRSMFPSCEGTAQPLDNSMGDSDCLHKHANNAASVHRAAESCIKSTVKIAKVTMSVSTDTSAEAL
Text: In Vitro Functional Assays with Recombinant Cells:

hCB1R [2] = biological target: T1, hCB1R; experiment: Binding to the CB1 receptor ([3H]-SR141716A displacement)
Experimental: Binding to the CB1 Receptor:
Test compounds: The compounds (3 μl, 10 mM, 100% DMSO), pipetted into 96-well PP microtiter plates, were diluted with 27 μl of 100% DMSO (dimethyl sulfoxide). Proceeding from this solution, further 3-fold dilution steps were undertaken by transferring 10 μl in each case to a new PP microtiter plate and adding a further 20 μl of 100% DMSO. In each case 6 μl of these solutions were transferred into new 96-well PP microtiter plates and made up with 144 μl of assay buffer. The end concentrations ranged from 10 μM to 0.005 μM. Negative control: AM 251, dissolved in assay buffer with 1% DMSO, was added to the dilution series in the microtiter plates as a control. The end concentration was 1 μM. Blank control: assay buffer with 1% DMSO was added to the dilution series of the microtiter plates as a blank control.
Summary of the Assay Parameters:
High control: ^3H binding without addition of the compound
Low control: ^3H binding in the presence of 1 μM AM 251
The values were calculated using the corrected raw data.
The values reported were obtained as average values of a double determination. The IC50 values were calculated from the measurements with the program Xlfit, formula 205. Ki values were obtained from the IC50 and Kd values utilizing the Cheng-Prusoff equation: […]
Literature: Cheng, Y.-C., and Prusoff, W. H. (1973) Biochem. Pharmacol 22, 3099-3108

[3] = CHO-K1/cannabinoid CB1 protein 2 μg/well, [3H]-SR141716A 0.5 nM, Ki from IC50 by Cheng-Prusoff, average of double determination, read-out: hCB1R, binding Ki

Ki (hCB1R [2]; [3]) [µM] | SMILES | IC50 (hCB1R [1]) [µM] | Ki (hCB1R [2]) [µM]
– | CC1(C)C(=O)N(c2ccc(C#N)c(C(F)(F)F)c2)C(=O)N1Cc1ccc(C(F)(F)F)cc1Nc1ccc(F)cc1 [Example 55, 4-{3-[2-(4-Fluorophenylamino)-4-trifluoromethylbenzyl]-4,4-dimethyl-2,5-dioxoimidazolidin-1-yl}-2-trifluoromethylbenzonitrile] | 0.01 | 0.008
– | CC1(C)C(=O)N(c2ccc(C#N)c(C(F)(F)F)c2)C(=O)N1Cc1ccccc1Nc1ccc(S(N)(=O)=O)cc1 [Example 68, 5,5-4-{2-[3-(4-Cyano-3-trifluoromethylphenyl)-5,5-dimethyl-2,4-dioxoimidazolidin-1-ylmethyl]phenylamino}benzene sulfonamide] | 0.044 | 0.016
0.036 | CC1(C)C(=O)N(c2ccc(C#N)c(-c3ccccc3)c2)C(=O)N1Cc1ccc(F)cc1Nc1ccc(C(=O)O)cc1 [Example 227, 4-{2-[3-(6-cyanobiphenyl-3-yl)-5,5-dimethyl-2,4-dioxoimidazolidin-1-ylmethyl]-5-fluorophenylamino}benzoic acid] | 0.016 | –
– | CC1(C)C(=O)N(c2ccc(C#N)c(C(F)(F)F)c2)C(=O)N1Cc1ccccc1Nc1ccc(S(F)(F)(F)(F)F)cc1 [Example 26, 4-{3-[2-(4-pentafluorosulfanylphenylamino)benzyl]-4,4-dimethyl-2,5-dioxoimidazolidin-1-yl}-2-trifluoromethylbenzonitrile] | – | 0.039
– | CC1(C)C(=O)N(c2ccc(C#N)c(C(F)(F)F)c2)C(=O)N1Cc1ccccc1Nc1ccc2c(c1)OC(F)(F)O2 [Example 32, 4-{3-[2-(2,2-difluorobenzo[1,3]dioxol-5-ylamino)benzyl]-4,4-dimethyl-2,5-dioxoimidazolidin-1-yl}-2-trifluoromethylbenzonitrile] | – | 0.003
– | CC1(C)C(=O)N(c2ccc(C#N)c(C(F)(F)F)c2)C(=O)N1Cc1cc(F)ccc1Nc1ccccc1 [Example 18, 4-[3-(5-fluoro-2-phenylaminobenzyl)-4,4-dimethyl-2,5-dioxoimidazolidin-1-yl]-2-trifluoromethylbenzonitrile] | – | 0.005
– | CC1(C)C(=O)N(c2ccc(C#N)c(C(F)(F)F)c2)C(=O)N1Cc1ccccc1Nc1ccncc1 [Example 61, 4-{4,4-Dimethyl-2,5-dioxo-3-[2-(pyridin-4-ylamino)benzyl]imidazolidin-1-yl}-2-trifluoromethylbenzonitrile] | – | 0.019
0.006 | CC1(C)C(=O)N(c2ccc(F)c(C(F)(F)F)c2)C(=O)N1Cc1ccccc1Nc1ccc(Cl)cc1 [Example 25, 1-[2-(4-chlorophenylamino)benzyl]-3-(4-fluoro-3-trifluoromethylphenyl)-5,5-dimethylimidazolidine-2,4-dione] | – | –
– | COc1ccc(Nc2ccc(F)cc2)c(CN2C(=O)N(c3ccc(C#N)c(C(F)(F)F)c3)C(=O)C2(C)C)c1 [Example 7, 4-{3-[2-(4-fluorophenylamino)-5-methoxybenzyl]-4,4-dimethyl-2,5-dioxoimidazolidin-1-yl}-2-trifluoromethylbenzonitrile] | – | 0.015
– | COc1ccc(Nc2ccc(C(F)(F)F)cc2)c(CN2C(=O)N(c3ccc(C#N)c(C(F)(F)F)c3)C(=O)C2(C)C)c1 [Example 8, 4-{3-[5-methoxy-2-(4-trifluoromethylphenylamino)benzyl]-4,4-dimethyl-2,5-dioxoimidazolidin-1-yl}-2-trifluoromethylbenzonitrile] | – | 0.015
– | CC1(C)C(=O)N(c2ccc(C#N)c(C(F)(F)F)c2)C(=O)N1Cc1cc(C(F)(F)F)ccc1Nc1ccc(Cl)cc1 [Example 19, 4-{3-[2-(4-chlorophenylamino)-5-trifluoromethylbenzyl]-4,4-dimethyl-2,5-dioxoimidazolidin-1-yl}-2-trifluoromethylbenzonitrile] | – | 0.005
0.004 | COC(=O)c1ccc(Nc2cc(F)ccc2CN2C(=O)N(c3ccc(C#N)c(-c4ccccc4)c3)C(=O)C2(C)C)cc1 [Example 223] | – | –
– | COC(=O)c1ccc(Nc2cc(F)ccc2CN2C(=O)N(c3ccc(C#N)c(C(F)(F)F)c3)C(=O)C2(C)C)cc1 [Example 111, Methyl 4-{2-[3-(4-cyano-3-trifluoromethylphenyl)-5,5-dimethyl-2,4-dioxoimidazolidin-1-ylmethyl]-5-fluorophenylamino}benzoate] | – | 0.001
– | CC1(C)C(=O)N(c2ccc(C#N)c(C(F)(F)F)c2)C(=O)N1Cc1ccccc1Nc1cccc(C(F)(F)F)c1 [Example 34, 4-{3-[2-(3-trifluoromethylphenylamino)benzyl]-4,4-dimethyl-2,5-dioxoimidazolidin-1-yl}-2-trifluoromethylbenzonitrile] | – | 0.014
– | CC1(C)C(=O)N(c2ccc(F)c(C(F)(F)F)c2)C(=O)N1Cc1ccccc1Nc1ccccc1 [Example 23, 3-(4-Fluoro-3-trifluoromethylphenyl)-5,5-dimethyl-1-(2-phenylaminobenzyl)imidazolidin-2,4-dione] | – | 0.01
0.011 | CC1(C)C(=O)N(c2ccc(Oc3ccc(Cl)cc3)c(C(F)(F)F)c2)C(=O)N1Cc1ccccc1Nc1ccc(F)cc1F [Example 50, 3-[4-(4-Chlorophenoxy)-3-trifluoromethylphenyl]-1-[2-(2,4-difluorophenylamino)benzyl]-5,5-dimethylimidazolidine-2,4-dione] | – | –
0.007 | COC(=O)c1ccc(Nc2cc(F)ccc2CN2C(=O)N(c3ccnc(C(C)(C)C)c3)C(=O)C2(C)C)cc1 [Example 167, Methyl 4-{2-[3-(2-tert-butylpyridin-4-yl)-5,5-dimethyl-2,4-dioxoimidazolidin-1-ylmethyl]-5-fluorophenylamino}benzoate] | – | –
– | COC(=O)c1ccc(Nc2cc(OC)ccc2CN2C(=O)N(c3ccc(C#N)c(C(F)(F)F)c3)C(=O)C2(C)C)cc1 [Example 110, Methyl 4-{2-[3-(4-cyano-3-trifluoromethylphenyl)-5,5-dimethyl-2,4-dioxoimidazolidin-1-ylmethyl]-5-methoxyphenylamino}benzoate] | – | 0.005
– | CC1(C)C(=O)N(c2ccc(C#N)c(C(F)(F)F)c2)C(=O)N1Cc1cc(C(F)(F)F)ccc1Nc1ccc(F)cc1 [Example 17, 4-{3-[2-(4-Fluorophenylamino)-5-trifluoromethylbenzyl]-4,4-dimethyl-2,5-dioxoimidazolidin-1-yl}-2-trifluoromethylbenzonitrile] | – | 0.003
– | CC1(C)C(=O)N(c2ccc(C#N)c(C(F)(F)F)c2)C(=O)N1Cc1ccccc1Nc1ccc(C(=O)NCC(N)=O)cc1 [Example 161, N-carbamoylmethyl-4-{2-[3-(4-cyano-3-trifluoromethylphenyl)-5,5-dimethyl-2,4-dioxoimidazolidin-1-ylmethyl]phenylamino}benzamide] | – | 0.008
0.027 | CC1(C)C(=O)N(c2ccc(C#N)nc2)C(=O)N1Cc1ccccc1Nc1ccc(F)cc1F [Example 70, 5-{3-[2-(2,4-difluorophenylamino)benzyl]-4,4-dimethyl-2,5-dioxoimidazolidin-1-yl}pyridine-2-carbonitrile] | – | –
– | CC1(C)C(=O)N(c2ccc(C#N)c(C(F)(F)F)c2)C(=O)N1Cc1ccccc1Nc1ccc(C(=O)NCCCS(C)(=O)=O)cc1 [Example 173, 4-{2-[3-(4-Cyano-3-trifluoromethylphenyl)-5,5-dimethyl-2,4-dioxoimidazolidin-1-ylmethyl]phenylamino}-N-(3-methanesulfonylpropyl)benzamide] | – | 0.034
– | CC1(C)C(=O)N(c2ccc(C#N)c(C(F)(F)F)c2)C(=O)N1Cc1ccccc1Nc1ccc(Cl)cc1Cl [Example 13, 4-{3-[2-(2,4-dichlorophenylamino)benzyl]-4,4-dimethyl-2,5-dioxoimidazolidin-1-yl}-2-trifluoromethylbenzonitrile] | – | 0.0009
– | CC1(C)C(=O)N(c2ccc(F)c(C(F)(F)F)c2)C(=O)N1Cc1ccccc1Nc1ccc(F)cc1F [Example 52, 1-[2-(2,4-difluorophenylamino)benzyl]-3-(4-fluoro-3-trifluoromethylphenyl)-5,5-dimethylimidazolidine-2,4-dione] | – | 0.003
– | COc1ccc(Nc2ccccc2CN2C(=O)N(c3ccc(C#N)c(C(F)(F)F)c3)C(=O)C2(C)C)nn1 [Example 179, 4-{3-[2-(6-methoxypyridazin-3-ylamino)benzyl]-4,4-dimethyl-2,5-dioxoimidazolidin-1-yl}-2-trifluoromethylbenzonitrile] | – | 0.016
– | N#Cc1ccc(N2C(=O)N(Cc3ccccc3Nc3ccccc3)C3(CCCCC3)C2=O)cc1C(F)(F)F [Example 28, 4-[2,4-Dioxo-1-(2-phenylaminobenzyl)-1,3-diazaspiro[4.5]dec-3-yl]-2-trifluoromethylbenzonitrile] | – | 0.087

SMILES | Ki (hCB1R [2]; [3]) [µM] | IC50 (hCB1R [1]) [µM] | Ki (hCB1R [2]) [µM]
CC1(C)C(=O)N(c2ccc(C#N)c(C(F)(F)F)c2)C(=O)N1Cc1cccc(Nc2ccccc2)c1 [Example 29, 4-[4,4-Dimethyl-2,5-dioxo-3-(3-phenylaminobenzyl)imidazolidin-1-yl]-2-trifluoromethylbenzonitrile] | 0.107 | – | –
